# “And” between values parts separate entries of the source, which are not always exact repeats. Identical values can stand only once.
# B1: anti-TNF-alpha VHH69: second anti-TNF-alpha single domain antibody, SEQ ID NO:46 (protein)
# VHH: EVQLVESGGGSVLAGGSLRLSCVASGFTSRYNYMAWFRQAPGKEREGVATIGTASGSADYYGSVKDRFTISQDNAKNTVYLQMNSLKPEDTAMYYCAARTYGTISLTPSDYRYWGQGTLVTVSS
# modifications: Camelid
# B2: anti-TNF-alpha VHH62: third anti-TNF-alpha single domain antibody, SEQ ID NO:47 (protein)
# VHH: QVQLVESGGGPVQAGETLRLSCTASGFTFAEADMGWYRQAPGHECELVSTITTEGITSEASSYYADSVRGRFTISRDNAKNMVYLQMNSLKPEDTAVYYCAPDPYAYSTYSDYCSWAQGTQGTLVTVSS
# modifications: Camelid
# Key:
# [1] = tested on: STAT3 reporter, induction by interleukin-6; assay: STAT3 reporter GloResponse SIE-luc2P/HEK293 cell assay, IL-6 induction; type: cell-based; details: for effect on IL-6 induction of STAT3 reporter: 24 hours and 48 hours treatment prior to IL-6;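 as to all read-outs here: IL-6 added at 40 ng/mL (EC80) for roughly one day after pretreatment, luciferase luminescence read with Bio-Glo reagent, untreated +IL6 wells serve as control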
# [2] = tested on: GloResponse SIE-luc2P/HEK 293 cells; assay: BCA protein concentration of reporter cells run in parallel; type: cell-based
# [3] = tested on: PANC-1 cells; assay: PANC-1 growth inhibition with or without Gemcitabine; details: for Absorbance: 72 hours
# [4] = tested on: PANC-1 xenograft; assay: PANC-1 xenograft, sdAb alone, Gemcitabine alone or combination, Example 19; details: for BODY WEIGHT (g) Mean / TUMOR VOLUMES (mm^3) Mean / % INHIBITION OF CONTROL (tumor growth): SBT-100 5 mg/kg BID, Gemcitabine 20 mg/kg, or both
# [5] = target: T1, endogenous STAT3 (Homo sapiens, UniProt P40763); assay: Immunoprecipitation of endogenous STAT3 from MDA-MB-231 lysate, Western blot; type: binding; details: FIG. 3
# T1 construct: endogenous STAT3 immunoprecipitated with all sdAbs tested at varying amounts; endogenous in cells
# Description: The specificity of STAT3 sdAbs was assayed in human breast cancer cells. […] The cells were then disrupted in freshly prepared ice-cold lysis buffer (20 mM HEPES, pH 7.9, 400 mM NaCl, 0.1% NP-40, 10% glycerol, 1 mM sodium vanadate, 1 mM sodium fluoride, 1 mM dithiothreitol, 1 mM phenylmethylsulfonyl fluoride, 10 μg/mL aprotinin, 10 μg/mL leupeptin) for 45 minutes on ice. Lysates were then centrifuged, the supernatant collected, and protein concentration was determined using a modified Lowry method (Bio Rad, Hercules, Calif.). Total protein (1 mg) was incubated with 1.5 mg of Dynabeads (Invitrogen) with sdAbs against STAT3, a positive control (STAT3, cat#SC-482, Santa Cruz Biotechnology, Dallas, Tex.), or negative control (STAT-1, cat#9172, Cell Signaling, Danvers, Mass.) for 1 hour at 4° C. Beads were then washed. Following the final wash, 60 μl of lysis buffer was added, and the resulting supernatant was subject to Western blot analysis. Briefly, samples were separated on 10% polyacrylamide gels and transferred to a nitrocellulose membrane. The membranes were blocked, then incubated with appropriate primary and secondary antibodies. Anti-STAT3 antibody, used as a positive control, was from Cell Signaling (Cat#4904, Danvers, Mass.). The chemiluminescence reaction was performed using the ECL system from Santa Cruz Biotechnology (Dallas, Tex.).
# [6] = target: T2, active human TNF-α full length protein (Homo sapiens, UniProt P01375); assay: TNF ELISA, binding of anti-TNF-α sdAbs to coated TNF-α protein; details: for detection in coated versus non-coated wells: 1 μg/mL sdAb, 0.5 μg/mL coating antigen; for binding to the TNF-α protein, detection: Experiment 1, 1 μg/mL sdAb; for OD450 Values: Non-Coated wells, sdAb 1 μg/mL, non-specific binding
# T2 construct: purchased Abcam
# Description: In this Example, the binding of anti-TNF-α sdAbs to active human TNF-α full length protein was assessed using an enzyme linked immunosorbent assay (ELISA) format. Additionally, the feasibility of utilizing a secondary antibody targeted to the his tag portion of the sdAbs was assessed.
# Plates were incubated overnight at 2-8° C. After the incubation, plates were washed (3×) and blocked (3% Bovine Serum Albumin (BSA) in Phosphate Buffered Saline (PBS)) for at least one hour at room temperature.
# After removal of the blocking buffer and washing (3×), samples were added to the appropriate wells of the ELISA plates and incubated at room temperature with shaking (150 rpm) for at least one hour. The secondary antibody (rabbit anti-llama biotinylated antibody at either a 1:5,000 or 10,000 dilution) was then added to each well and incubated with shaking for at least one hour at room temperature.
# After the incubation with secondary antibody, the plates were again washed (3×) and horseradish peroxidase (HRP) at either a 1:25,000 or 1:50,000 dilution was added to each well. Plates were incubated with shaking for at least one hour at room temperature. A final wash (3×) was performed followed by the addition of TMB (Tetramethylbenzidine) substrate. After a 20 to 25 minute incubation at room temperature, stop solution was added to halt the colorimetric reaction. The absorbance at 450 nm was measured on a VersaMax instrument utilizing SoftMax Pro GxP version 5.4 software from Molecular Devices (Sunnyvale, Calif.).
# The final experiment performed was to confirm that the results from the ELISA testing were due to binding to the TNF-α protein and not non-specific binding of the sdAb. For this determination, a comparison was made between wells coated with 0.5 μg/mL of coating antigen and non-coated wells. […] This experiment confirms that the detection seen with the previous experiments was due to the specific binding of the VHH to the coating antigen and not due to non-specific binding.
# [7] = tested on: rabbit anti-llama biotinylated antibody or his-probe (H-3) biotin labeled antibody; assay: ELISA with sdAbs coated, binding of secondary antibodies (Experiments 2 and 3)
# Description: Two assays (Experiment 2 and 3) were performed to assess the binding of the secondary antibody to the sdAbs. A similar ELISA method was utilized except the sdAbs were directly coated onto the assay plate at a concentration of 1 μg/mL. Plates were incubated overnight at 2-8° C. After the incubation, plates were washed (3×) and blocked (3% BSA in PBS) for at least one hour at room temperature.
# After removal of the blocking buffer and washing (3×), the secondary antibodies, either rabbit anti-llama biotinylated antibody or his-probe (H-3) biotin labeled antibody at was then added at a 1:5,000 dilution to each well and incubated with shaking for at least one hour at room temperature. Only the rabbit anti-llama biotinylated antibody was used in Experiment 2. Both antibodies were run in parallel in Experiment 3.
# After the incubation with secondary antibody, the plates were again washed (3×) and HRP at a 1:50,000 dilution was added to each well. Plates were incubated with shaking for at least one hour at room temperature. One last wash (3×) was performed followed by the addition of TMB substrate and plates were incubated at room temperature. For the anti-llama biotinylated antibody stop solution was added to halt the colorimetric reaction at 10 minutes. The his-probe (H-3) biotin labeled antibody was allowed to incubate for 20 minutes prior to stopping. The absorbance at 450 nm was measured as before.
# [8] = 24 Hour Treatment Prior to IL6 Induction, high conc.: VHH13 55.8 μg/mL, VHH14 84.3 μg/mL, BB1608 4.16 μM, VHH69 50.5 μg/mL
# [9] = 24 Hour Treatment Prior to IL6 Induction, low conc.: VHH13, VHH14, VHH69 10 μg/mL, BB1608 2 μM
# [10] = 48 Hour Treatment Prior to IL6 Induction, high conc.: VHH13 55.8 μg/mL, VHH14 84.3 μg/mL, BB1608 4.16 μM, VHH69 50.5 μg/mL
# [11] = 48 Hour Treatment Prior to IL6 Induction, low conc.: VHH13, VHH14, VHH69 10 μg/mL, BB1608 2 μM
# [12] = His-probe (H-3), Experiment 3, stored 1:100 dilution of sdAb
# [13] = Rabbit anti-Llama Secondary Antibody, Experiment 2, sdAb coated at 1 μg/mL
# [14] = Rabbit anti-Llama Secondary Antibody, Experiment 3, stored 1:100 dilution of sdAb
# T2 sequence (P01375 77-233 limits assumed): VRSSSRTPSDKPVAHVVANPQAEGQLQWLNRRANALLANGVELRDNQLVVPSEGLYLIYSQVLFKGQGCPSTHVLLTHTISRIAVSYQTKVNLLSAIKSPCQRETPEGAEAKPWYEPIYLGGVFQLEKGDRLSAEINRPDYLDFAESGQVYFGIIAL
# T1 sequence (P40763 whole entry): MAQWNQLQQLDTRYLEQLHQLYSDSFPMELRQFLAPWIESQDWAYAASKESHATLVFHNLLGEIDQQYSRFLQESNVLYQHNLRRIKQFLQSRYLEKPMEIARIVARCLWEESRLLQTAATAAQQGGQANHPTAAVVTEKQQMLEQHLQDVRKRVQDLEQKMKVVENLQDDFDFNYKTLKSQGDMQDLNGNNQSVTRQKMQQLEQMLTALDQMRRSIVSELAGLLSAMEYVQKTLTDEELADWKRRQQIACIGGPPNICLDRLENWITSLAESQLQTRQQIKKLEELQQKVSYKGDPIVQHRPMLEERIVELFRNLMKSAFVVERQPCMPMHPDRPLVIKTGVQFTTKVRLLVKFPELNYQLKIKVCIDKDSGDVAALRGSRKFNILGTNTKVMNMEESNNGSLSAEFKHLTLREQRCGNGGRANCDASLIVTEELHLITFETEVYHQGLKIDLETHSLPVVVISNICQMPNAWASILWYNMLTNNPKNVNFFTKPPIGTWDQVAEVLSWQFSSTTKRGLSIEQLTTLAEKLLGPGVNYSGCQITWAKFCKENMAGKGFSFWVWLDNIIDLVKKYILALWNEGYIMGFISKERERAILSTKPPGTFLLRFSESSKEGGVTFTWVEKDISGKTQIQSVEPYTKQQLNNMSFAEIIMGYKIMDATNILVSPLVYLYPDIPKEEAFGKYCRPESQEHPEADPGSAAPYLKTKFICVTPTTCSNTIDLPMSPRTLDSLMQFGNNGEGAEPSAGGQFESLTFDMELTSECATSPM
molecule,measurement,setting,value
"CC(=O)c1cc2c(o1)C(=O)c1ccccc1C2=O [BB1608, napabucasin, reference compound]",Average RLU,[1]; [8],33 RLU
same,Average RLU with Media Blank,[1]; [8],8 RLU
same,Fold-Induction RLU/RLU of-IL6,[1]; [8],0
same,"Luminescence (RLU), single wells",[1]; [8],41 RLU and 28 RLU and 31 RLU
same,Average RLU,[1]; [9],38 RLU
same,Average RLU with Media Blank,[1]; [9],12 RLU
same,Fold-Induction RLU/RLU of-IL6,[1]; [9],0
same,"Luminescence (RLU), single wells",[1]; [9],41 RLU and 33 RLU and 39 RLU
same,Average RLU,[1]; [10],29 RLU
same,Average RLU with Media Blank,[1]; [10],−3 RLU
same,Fold-Induction RLU/RLU of−IL6,[1]; [10],0
same,"Luminescence (RLU), single wells",[1]; [10],25 RLU and 31 RLU and 32 RLU
same,Average RLU,[1]; [11],33 RLU
same,Average RLU with Media Blank,[1]; [11],0 RLU
same,Fold-Induction RLU/RLU of−IL6,[1]; [11],0
same,"Luminescence (RLU), single wells",[1]; [11],26 RLU and 42 RLU and 31 RLU
same,effect on IL-6 induction of STAT3 reporter,[1],Inhibition of IL-6
same,Protein concentration,[2]; [8],174
same,Protein concentration,[2]; [9],425
same,Protein concentration,[2]; [10],165
same,Protein concentration,[2]; [11],324
Nc1ccn([C@@H]2O[C@H](CO)[C@@H](O)C2(F)F)c(=O)n1 [Gemcitabine],Absorbance,[3]; Gemcitabine 0.020 μM in DMSO,1.560
same,Absorbance,[3]; Gemcitabine 0.039 μM in DMSO,1.240
same,Absorbance,[3]; Gemcitabine 0.625 μM in DMSO,1.050
same,Absorbance,[3]; Gemcitabine 5 μM in DMSO,0.631
same,Absorbance,[3]; Gemcitabine 10 μM in DMSO,0.543
same,IC50,"[3]; Homo sapiens, PANC-1, read-out: IC50 concentration",10 µM
same,Mean Tumour Size (mm^3) Day 1,"[4]; Day 1 (start of treatment), SBT-100 5 mg/kg IP BID × 14, Gemcitabine 20 mg/kg IP QD × 7, or both",122.23 ± 23.46 mm^3
same,BODY WEIGHT (g) Mean,[4]; Day 1,23.77 g
same,TUMOR VOLUMES (mm^3) Mean,[4]; Day 1,122.23 mm^3
same,BODY WEIGHT (g) Mean,[4]; Day 5,23.47 g
same,TUMOR VOLUMES (mm^3) Mean,[4]; Day 5,165.57 mm^3
same,BODY WEIGHT (g) Mean,[4]; Day 8,23.37 g
same,TUMOR VOLUMES (mm^3) Mean,[4]; Day 8,183.88 mm^3
same,% INHIBITION OF CONTROL (tumor growth),[4]; Day 12,19.51%
same,BODY WEIGHT (g) Mean,[4]; Day 12,23.13 g
same,TUMOR VOLUMES (mm^3) Mean,[4]; Day 12,191.6 mm^3
same,% INHIBITION OF CONTROL (tumor growth),[4]; Day 15,23.17%
same,TUMOR VOLUMES (mm^3) Mean,[4]; Day 15,246.48 mm^3
same,% INHIBITION OF CONTROL (tumor growth),[4]; Day 19,23.26%
same,BODY WEIGHT (g) Mean,[4]; Day 19,23.97 g
same,TUMOR VOLUMES (mm^3) Mean,[4]; Day 19,312.74 mm^3
same,% INHIBITION OF CONTROL (tumor growth),[4]; Day 22,14.93%
same,BODY WEIGHT (g) Mean,[4]; Day 22,24.55 g
same,TUMOR VOLUMES (mm^3) Mean,[4]; Day 22,411.93 mm^3
"STAT-1: negative control in immunoprecipitation (STAT-1, cat#9172, Cell Signaling) [reference compound]",immunoprecipitation of endogenous STAT3,[5],no band
B1,Average RLU,[1]; [8],198596 RLU
same,Average RLU with Media Blank,[1]; [8],198571 RLU
same,Fold-Induction RLU/RLU of-IL6,[1]; [8],434
same,"Luminescence (RLU), single wells",[1]; [8],203139 RLU and 194320 RLU and 198330 RLU
same,Average RLU,[1]; [9],169752 RLU
same,Average RLU with Media Blank,[1]; [9],169726 RLU
same,Fold-Induction RLU/RLU of-IL6,[1]; [9],371
same,"Luminescence (RLU), single wells",[1]; [9],159115 RLU and 184364 RLU and 165776 RLU
same,Average RLU,[1]; [10],225726 RLU
same,Average RLU with Media Blank,[1]; [10],225694 RLU
same,Fold-Induction RLU/RLU of−IL6,[1]; [10],452
same,"Luminescence (RLU), single wells",[1]; [10],237816 RLU and 220259 RLU and 219104 RLU
same,Average RLU,[1]; [11],172988 RLU
same,Average RLU with Media Blank,[1]; [11],172955 RLU
same,Fold-Induction RLU/RLU of−IL6,[1]; [11],347
same,"Luminescence (RLU), single wells",[1]; [11],191241 RLU and 171796 RLU and 155927 RLU
same,effect on IL-6 induction of STAT3 reporter,[1],enhancement of the IL-6 induction
same,Protein concentration,[2]; [8],213
same,Protein concentration,[2]; [9],237
same,Protein concentration,[2]; [11],222
same,detection in coated versus non-coated wells,[6],detected in coated wells but not in non-coated wells
same,"binding to the TNF-α protein, detection",[6],little to no detection
same,OD450 Values,[6],0.007
same,OD450 Values,[7]; [12],0.153
same,OD450 Values,[7]; [13],0.499
same,OD450 Values,[7]; [14],0.443
B2,detection in coated versus non-coated wells,[6],not detected in either coated or non-coated wells
same,"binding to the TNF-α protein, detection",[6],little to no detection
same,OD values,"[6]; Experiment 4, 10-fold serial dilutions starting at 1 μg/mL",< 0.2 OD450
same,OD450 Values,[6],−0.001
same,OD450 Values,[7]; [12],0.196
same,OD450 Values,[7]; [13],1.485
same,OD450 Values,[7]; [14],2.341

# Source: patent publication US20170327598A1, “SINGLE DOMAIN ANTIBODIES DIRECTED AGAINST INTRACELLULAR ANTIGENS” (SINGH MOLECULAR MEDICINE, LLC, priority 2014, published 2017)
